pIC50: −log10 of the molar value.

The test system of the first assay is AEA cellular uptake (U937 cells). Nature of the assay: [3H]-AEA cellular uptake inhibition in U937 cells. As to conditions: Homo sapiens, U-937, U937 cells, final 100 nM AEA with 0.5 nM [3H]-AEA, 15 min at 37° C.; read-out: AEA uptake IC50. The format is cell-based. Here is the method: [^3H]-AEA Cellular Uptake
Screening for AEA cellular uptake inhibition was performed in a semi-automated procedure: Pipetting and washing steps were performed by a Biomek3000 laboratory workstation. First, required amounts of U937 cells were centrifuged at 100×g for 5 min and resuspended in RPMI (37° C.) to a final concentration of 2×10^6 cells/mL. Then, 250 μL of cell suspension (0.5×10^6 cells per sample) were transferred into AquaSil™ silanized glass vials (Chromacol 1.1-MTV) in 96-well format. After addition of 5 μL vehicle (DMSO) or compounds the cells were incubated at 37° C. for 15 min. As positive controls OMDM-2 and UCM707 were used at 10 μM in each run. The ETI-T compounds were measured at up to 7 concentrations in triplicates from 100 pM-100 μM. After pre-incubation, a mixture of 0.5 nM [ethanolamine-1-^3H]-AEA, (60 Ci/mmol) and 99.5 nM of cold AEA (final 100 nM) was added and samples were incubated at 37° C. for another 15 min. The reaction was stopped by rapid filtration over UniFilter-96 GF/C filters (PerkinElmer) pre-soaked with PBS 0.25% BSA. Cells were washed three times with 100 μL ice-cold PBS buffer containing 1% fatty acid free BSA. After drying, 45 μL MicroScint 20 scintillation cocktail (PerkinElmer, Waltham, Mass., US) was added to the wells and the plate was sealed. Radioactivity was measured by liquid scintillation counting on a PerkinElmer Wallac Trilux MicroBeta 1450 during 2 min. Non-specific binding of [^3H]AEA (100 nM) to the glass vials was never higher than 10%. IC50 values were calculated by GraphPad® by non-linear regression using the built-in log(inhibitor) vs. response-variable slope (four parameters) function.
With `O=C1/C(=C/c2ccc3[nH]cnc3c2)S/C(=N\Cc2ccccc2)N1CCc1ccccc1` [04_C_O, (2Z,5Z)-5-((1H-benzo[d]imidazol-5-yl)methylene)-2-(benzylimino)-3-phenethylthiazolidin-4-one], the pIC50 was 5.95.

With `O=C1/C(=C/c2ccc(CO)cc2)S/C(=N\Cc2ccccc2)N1c1ccccc1` [22_C_N, (2Z,5Z)-5-(4-(hydroxymethyl)benzylidene)-2-(benzylimino)-3-phenylthiazolidin-4-one], the pIC50 is 5.78.

For `COc1ccc(C/N=C2\S/C(=C\c3ccccc3)C(=O)N2c2ccccc2)cc1` [23_Q_N, (2Z,5Z)-2-(4-methoxybenzylimino)-5-benzylidene-3-phenylthiazolidin-4-one], the pIC50 was 6.22.

With `O=C1/C(=C/c2ccc3[nH]ccc3c2)S/C(=N\c2ccccc2)N1c1ccccc1` [compound 03, (2Z,5Z)-5-((1H-indol-5-yl)methylene)-3-phenyl-2-(phenylimino)thiazolidin-4-one], the pIC50 was 6.14.

Consider `O=C1/C(=C/c2ccccc2)S/C(=N\Cc2ccccc2Cl)N1c1ccccc1` [23_T_N, (2Z,5Z)-2-(2-chlorobenzylimino)-5-benzylidene-3-phenylthiazolidin-4-one], for which the pIC50 is 6.25.

Turning to `O=C1/C(=C/c2ccc3[nH]cnc3c2)S/C(=N\c2ccccc2)N1Cc1ccccc1` [03_N_C, (2Z,5Z)-5-((1H-benzo[d]imidazol-5-yl)methylene)-3-benzyl-2-(phenylimino)thiazolidin-4-one], the pIC50 was 6.21.

Regarding `CC(C)CN1C(=O)/C(=C/c2ccc3ncsc3c2)S/C1=N\c1ccc(F)cc1` [32_B_X, (2Z,5Z)-2-(4-fluorophenylimino)-5-((benzo[d]thiazol-6-yl)methylene)-3-isobutylthiazolidin-4-one], the pIC50 is 6.00.

With `COCc1cccc(/C=C2\S/C(=N\CCc3ccccc3)N(c3ccccc3)C2=O)c1` [15_U_N, (2Z,5Z)-5-(3-(methoxymethyl)benzylidene)-2-(phenethylimino)-3-phenylthiazolidin-4-one], the negative logarithm of the IC50 (pIC50) is 4.81.

With `Cc1ccc(/N=C2\S/C(=C\c3ccc(CO)cc3)C(=O)N2c2ccccc2)nc1` [22_D_N, (2Z,5Z)-5-(4-(hydroxymethyl)benzylidene)-2-(5-methylpyridin-2-ylimino)-3-phenylthiazolidin-4-one], the pIC50 was 5.84.

Consider `O=C1/C(=C/c2ccc3[nH]cnc3c2)S/C(=N\CCc2ccccc2)N1c1ccccc1` [04_U_N, (2Z,5Z)-5-((1H-benzo[d]imidazol-5-yl)methylene)-2-(phenethylimino)-3-phenylthiazolidin-4-one], for which the pIC50 is 5.85.

Turning to `Cc1ccc(/N=C2\S/C(=C\c3ccc4c(c3)OCCO4)C(=O)N2c2ccccc2)cc1` [24_A_N, (2Z,5Z)-2-(p-tolylimino)-5-((2,3-dihydrobenzo[b][1,4]dioxin-6-yl)methylene)-3-phenylthiazolidin-4-one], the pIC50 was 5.82.

On to `CCCCCCCCCCCCN1C(=O)/C(=C/c2ccc(CO)cc2)S/C1=N\c1ccc(F)cc1` [22_B_V, (2Z,5Z)-5-(4-(hydroxymethyl)benzylidene)-2-(4-fluorophenylimino)-3-dodecylthiazolidin-4-one], for which the pIC50 is 4.90.

As for `O=C1/C(=C/c2ccc(CO)cc2)S/C(=N\Cc2ccccc2)N1CCc1ccccc1` [15_C_O, (2Z,5Z)-5-(4-(hydroxymethyl)benzylidene)-2-(benzylimino)-3-phenethylthiazolidin-4-one], the pIC50 was 5.81.

For `O=C1/C(=C/c2ccc3[nH]cnc3c2)S/C(=N\Cc2ccccc2)N1CCCc1ccccc1` [04_C_K, (2Z,5Z)-5-((1H-benzo[d]imidazol-5-yl)methylene)-2-(benzylimino)-3-(3-phenylpropyl)thiazolidin-4-one], the pIC50 is 5.94.

Consider `O=C1/C(=C/c2ccc3[nH]cnc3c2)S/C(=N\Cc2ccccc2)N1c1ccc(F)cc1` [04_C_B, (2Z,5Z)-5-((1H-benzo[d]imidazol-5-yl)methylene)-2-(benzylimino)-3-(4-fluorophenyl)thiazolidin-4-one], for which the pIC50 is 6.06.

On to `COc1ccc(/N=C2\S/C(=C\c3ccc4[nH]ccc4c3)C(=O)N2c2ccccc2)cc1` [03_F_N, (2Z,5Z)-5-((1H-indol-5-yl)methylene)-2-(4-methoxyphenylimino)-3-phenylthiazolidin-4-one], for which the pIC50 is 5.97.

In the case of `O=C1/C(=C/c2ccc(CO)cc2)S/C(=N\Cc2ccc(F)cc2)N1c1ccccc1` [22_P_N, (2Z,5Z)-5-(4-(hydroxymethyl)benzylidene)-2-(4-fluorobenzylimino)-3-phenylthiazolidin-4-one], the negative-log IC50 (pIC50) is 6.30.

With `COCc1cccc(/C=C2\S/C(=N\Cc3ccccc3Cl)N(c3ccccc3)C2=O)c1` [15_T_N, (2Z,5Z)-2-(2-chlorobenzylimino)-5-(3-(methoxymethyl)benzylidene)-3-phenylthiazolidin-4-one], the pIC50 was 5.58.

As to `O=C1/C(=C/c2ccc3c(c2)OCCO3)S/C(=N\c2ccc(F)cc2)N1c1ccccc1` [24_B_N, (2Z,5Z)-2-(4-fluorophenylimino)-5-((2,3-dihydrobenzo[b][1,4]dioxin-6-yl)methylene)-3-phenylthiazolidin-4-one], the pIC50 was 6.38.

The same assay, now with this note: Homo sapiens, U-937, U937 cells, final 100 nM AEA with 0.5 nM [3H]-AEA, 15 min at 37° C.; read-out: AEA uptake inhibition IC50.
Consider `Cn1ncc2cc(/C=C3\S/C(=N\c4ccccc4)N(c4ccccc4)C3=O)ccc21` [drawing 126], for which the pIC50 is 6.29.

Regarding `COc1ccc(/N=C2\S/C(=C\c3ccccc3)C(=O)N2c2ccccc2)cc1`, the pIC50 was 5.63.

With `O=C1/C(=C/c2ccc(CO)cc2)S/C(=N\c2ccccc2)N1c1ccccc1` [drawing 121], the pIC50 is 6.14.

For the compound `O=C1/C(=C/c2ccc3c(c2)OCCO3)S/C(=N\c2ccccc2)N1c1ccccc1` [drawing 119], the pIC50 is 6.09.

In the case of `O=C1/C(=C/c2ccc3[nH]c(=O)oc3c2)S/C(=N\c2ccccc2)N1c1ccccc1`, the pIC50 is 5.25.

On to `COc1ccc(/C=C2\S/C(=N\c3ccccc3)N(c3ccccc3)C2=O)nc1`, for which the pIC50 is 5.18.

In the case of `Cc1ccc(/N=C2\S/C(=C\c3ccc(CO)cc3)C(=O)N2c2ccccc2)cc1` [drawing 141], the pIC50 was 6.95.

Turning to `Cc1ccc(/N=C2\S/C(=C\c3ccccc3)C(=O)N2c2ccccc2)cc1`, the pIC50 is 5.49.

For the compound `COc1ccc(/C=C2\S/C(=N\Cc3ccccc3)N(c3ccccc3)C2=O)cc1`, the pIC50 was 6.36.

For `O=C1/C(=C/c2ccc(CO)cc2)S/C(=N\Cc2ccccc2)N1c1ccccc1` [drawing 142], the pIC50 was 6.59.

Take `O=C1/C(=C/c2ccc3c(c2)OCCO3)S/C(=N\Cc2ccccc2)N1c1ccccc1` [drawing 133]: the pIC50 was 6.77.

For `COc1ccc(/C=C2\S/C(=N\c3ccccc3)N(c3ccc(OC)cc3)C2=O)cc1`, the pIC50 is 5.14.

With `O=C1/C(=C/c2ccc3scnc3c2)S/C(=N\c2ccccc2)N1c1ccccc1`, the pIC50 was 4.93.

On to `COc1cc(/C=C2\S/C(=N\c3ccccc3)N(c3ccccc3)C2=O)ccn1`, for which the pIC50 is 5.26.

Still in this assay, the particulars now being: U937 cells, final 100 nM AEA with 0.5 nM [3H]-AEA, 15 min at 37° C.; read-out: AEA uptake IC50.
For the compound `Cc1ccc(N2C(=O)/C(=C/c3ccc4[nH]cnc4c3)S/C2=N\c2ccc(F)cc2)cc1` [04_B_A, (2Z,5Z)-5-((1H-benzo[d]imidazol-5-yl)methylene)-2-(4-fluorophenylimino)-3-p-tolylthiazolidin-4-one], the pIC50 is 6.28.

`O=C1/C(=C/c2ccc(CO)cc2)S/C(=N\Cc2ccccc2)N1CCCc1ccccc1` [22_C_K, (2Z,5Z)-5-(4-(hydroxymethyl)benzylidene)-2-(benzylimino)-3-(3-phenylpropyl)thiazolidin-4-]: the pIC50 is 5.84.

For the origin of these results see patent publication US10155754B2, “Substituted 2-imino-1,3-thiazolidin-4-ones as N-arachidonoylethanolamine cellular uptake inhibitors” (UNIVERSITAT BERN, priority 2014, dated 2018).
